The values that follow come from patent US9187455B2, “Substituted pyridazines as PDE10A inhibitors” (Hoffmann-La Roche Inc., priority 2009, dated 2015).

The target in the first test is T1, PDE10A2 (Homo sapiens, UniProt Q9Y233).
T1 construct: residues serine 449 to aspartate 789; His6 (H6) with Gateway linker and thrombin cleavage site (N, cleaved yes); made in house; host or cells: E. coli BL21(DE3) pLysS
T1 sequence (Q9Y233 715-1055): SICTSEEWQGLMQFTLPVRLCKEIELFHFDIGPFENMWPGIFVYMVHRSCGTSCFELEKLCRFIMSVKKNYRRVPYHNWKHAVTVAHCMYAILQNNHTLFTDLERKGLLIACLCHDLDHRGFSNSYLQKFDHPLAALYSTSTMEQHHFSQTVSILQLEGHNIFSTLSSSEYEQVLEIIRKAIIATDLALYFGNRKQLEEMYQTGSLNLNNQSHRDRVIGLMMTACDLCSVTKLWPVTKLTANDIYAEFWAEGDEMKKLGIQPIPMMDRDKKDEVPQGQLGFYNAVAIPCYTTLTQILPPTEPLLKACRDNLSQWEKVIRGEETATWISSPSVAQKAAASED
The experiment in a line: PDE10A2 Scintillation Proximity Assay (SPA), [3H]-cGMP hydrolysis. In kind it is biochemical. The settings on record: catalytic domain of human PDE10A2 (S449-D789), 0.25 nM enzyme, 50 nM cGMP + 50 nM [3H]-cGMP, 30 minutes at room temperature; read-out: PDE10A2 inhibition IC50. In short, it runs like this: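 Recombinant human PDE10A2 catalytic domain (S449–D789, E. coli-expressed), 0.25 nM, with 50 nM cGMP plus 50 nM [3H]-cGMP in 20 mM HEPES/10 mM MgCl2, pH 7.5, 30 min at room temperature. Stopped with YSi-SPA beads in zinc sulphate; counts over a compound concentration range gave IC50.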
For the compound `O=c1ccn(-c2ccnc(C(F)(F)F)c2)nc1-c1ccnn1-c1cccc(Cl)c1` [Example 95, 3-[2-(3-Chloro-phenyl)-2H-pyrazol-3-yl]-1-(2-trifluoromethyl-pyridin-4-yl)-1H-pyridazin-4-one], the IC50 was found to be 73 nM. On the same count and under the same terms, the same measure for `N#Cc1cc(-n2ccc(=O)c(-c3ccnn3-c3ccccc3F)n2)ccn1` [Example 96, 4-{3-[2-(2-Fluoro-phenyl)-2H-pyrazol-3-yl]-4-oxo-4H-pyridazin-1-yl}-pyridine-2-carbonitrile]: 308 nM. Still for that read-out and setting: the same measure for `O=c1ccn(-c2ccncc2)nc1-c1ccnn1-c1cccc(Br)c1` [Example 97, 3-[2-(3-Bromo-phenyl)-2H-pyrazol-3-yl]-1-pyridin-4-yl-1H-pyridazin-4-one]: 17 nM; for `C#Cc1cccc(-n2nccc2-c2nn(-c3ccncc3)ccc2=O)c1` [Example 99, 3-[2-(3-Ethynyl-phenyl)-2H-pyrazol-3-yl]-1-pyridin-4-yl-1H-pyridazin-4-one]: 18 nM; for `O=c1ccn(-c2ccc3cnccc3c2)nc1-c1ccnn1-c1ccccc1F` [Example 100, 3-[2-(2-Fluoro-phenyl)-2H-pyrazol-3-yl]-1-isoquinolin-6-yl-1H-pyridazin-4-one]: 31 nM. `O=c1ccn(-c2ccc3cnccc3c2)nc1-c1ccnn1-c1cccc(F)c1` [Example 101, 3-[2-(3-Fluoro-phenyl)-2H-pyrazol-3-yl]-1-isoquinolin-6-yl-1H-pyridazin-4-one]: the IC50 was 41 nM.

In the case of `O=c1ccn(-c2ccc3ncccc3c2)nc1-c1ccnn1-c1ccccc1F` [Example 102, 3-[2-(2-Fluoro-phenyl)-2H-pyrazol-3-yl]-1-quinolin-6-yl-1H-pyridazin-4-one], the IC50 was 20 nM.

Consider `O=c1ccn(-c2ccc3ncccc3c2)nc1-c1ccnn1-c1cccc(Cl)c1` [Example 103, 3-[2-(3-Chloro-phenyl)-2H-pyrazol-3-yl]-1-quinolin-6-yl-1H-pyridazin-4-one], for which the IC50 stood at 7 nM.

A further test has as its system rats.
Assay: not given
The settings on record: sub-chronic treatment with PCP, Rodefer et al. 2005; cited from earlier work.
With `COc1ccc(Cc2nccc3cc(OC)c(OC)cc23)cc1OC` [papaverine, Papaverine], the “effect on deficits in extra-dimensional shift learning” value is “attenuate the deficits in the extra-dimensional shift learning”.
